Assays:
[1] = biological target: T1, full length human TREX1 (Homo sapiens, UniProt Q9NSU2); assay: hTREX1 Biochemical Assay (fluorescence, dsDNA substrate degradation); details: biochemical, read-out: hTREX1 IC50
T1 construct: N-terminally His-Tev tagged full length human TREX1; made in house; host or cells: E. coli
T1 sequence (Q9NSU2 1-314): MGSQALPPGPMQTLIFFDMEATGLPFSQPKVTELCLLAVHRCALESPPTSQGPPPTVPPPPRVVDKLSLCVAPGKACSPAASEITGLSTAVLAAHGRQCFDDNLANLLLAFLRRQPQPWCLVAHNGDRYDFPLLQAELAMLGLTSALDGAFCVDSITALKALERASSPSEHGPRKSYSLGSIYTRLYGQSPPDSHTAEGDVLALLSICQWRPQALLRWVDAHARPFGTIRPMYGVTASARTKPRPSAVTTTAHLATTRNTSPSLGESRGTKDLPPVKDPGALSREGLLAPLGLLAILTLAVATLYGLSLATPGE
Method: (§1) Degradation of the dsDNA liberates free fluorophore to produce a fluorescent signal. Specifically, 7.5 μL of N-terminally His-Tev tagged full length human TREX1 (expressed in E. coli and purified in house) in reaction buffer (50 mM Tris, 150 mM NaCl, 2 mM DTT, 0.1 mg/mL BSA, 0.01% (w/v) Tween-20, 5 mM MgCl2, pH 7.4) was added to a 384-well Black ProxiPlate Plus (PerkinElmer) which already contained compound (150 nL) at varying concentrations as a 10 point dose-response in DMSO. The plate was incubated at 25° C. for 4 hours. Reactions were initiated by adding 7.5 μL of dsDNA substrate (Strand A: 5′ TEX615/GCT AGG CAG 3′; Strand B: 5′ CTG CCT AGC/IAbRQSp (Integrated DNA Technologies)) in reaction buffer. Final concentrations were 4 pM TREX1, 60 nM dsDNA substrate in reaction buffer with 1.0% DMSO (v/v). After 18 hours at 25° C., reactions were quenched by the addition of 2 μL of 500 mM EDTA.

[2] = biological target: T2, full length mouse TREX1 (Mus musculus, UniProt Q91XB0); assay: mTREX1 Biochemical Assay (fluorescence, dsDNA substrate degradation); details: biochemical, read-out: mTREX1 IC50
T2 construct: N-terminally His-Tev tagged full length mouse TREX1; made in house; host or cells: E. coli
T2 sequence (Q91XB0 1-314): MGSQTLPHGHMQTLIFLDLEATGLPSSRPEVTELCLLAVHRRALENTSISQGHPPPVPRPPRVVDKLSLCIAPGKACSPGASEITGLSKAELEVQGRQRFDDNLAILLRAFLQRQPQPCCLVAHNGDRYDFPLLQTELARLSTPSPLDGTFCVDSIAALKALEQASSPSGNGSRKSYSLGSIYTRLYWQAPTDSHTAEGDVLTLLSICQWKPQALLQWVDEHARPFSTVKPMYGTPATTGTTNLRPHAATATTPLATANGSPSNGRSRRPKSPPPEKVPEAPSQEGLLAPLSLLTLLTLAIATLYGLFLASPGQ
Method: as §1, with “length mouse” for “length human”, “were 6” for “were 4”

SMILES	IC50 [1] [nM]	IC50 [2] [nM]
CC(c1nc(C(=O)Nc2cnoc2)c(O)c(=O)n1C)C(c1cnn(C)c1)c1cccnc1C#N (single isomer, unassigned) [Example 7 D2E1]	> 10	> 10
CC(c1nc(C(=O)Nc2cnoc2)c(O)c(=O)n1C)C(c1cnn(C)c1)c1ccncc1C#N (single isomer, unassigned) [Example 8 D1E1]	> 10	> 10
CC(c1nc(C(=O)Nc2cnoc2)c(O)c(=O)n1C)C(c1cnn(C)c1)c1ccncc1C#N (single isomer, unassigned) [Example 8 D2E1]	> 10	> 10
COCCn1cc(C(c2ccccc2C#N)C(C)c2nc(C(=O)Nc3cnoc3)c(O)c(=O)n2C)cn1 (single isomer, unassigned) [Example 9 D1E2]	> 10	> 10
COCCn1cc(C(c2ccccc2C#N)C(C)c2nc(C(=O)Nc3cnoc3)c(O)c(=O)n2C)cn1 (single isomer, unassigned) [Example 9 D2E2]	> 10	> 10
CC(c1nc(C(=O)Nc2cnoc2)c(O)c(=O)n1C)C(c1ccccc1C#N)c1cn(C)nc1C#N (single isomer, unassigned) [Example 10 D2E2]	> 10	> 10
CC(c1nc(C(=O)Nc2cnoc2)c(O)c(=O)n1C)C(c1cnn(C)c1)c1ccc(C(=O)N(C)C)cc1C#N (single isomer, unassigned) [Example 11 D2E1]	> 10	> 10
CC(c1nc(C(=O)Nc2cnoc2)c(O)c(=O)n1C)C(c1cnn(C)c1)c1ccc(C(=O)N(C)C)cc1C#N (single isomer, unassigned) [Example 11 D2E2]	> 10	> 10
CC(c1nc(C(=O)Nc2cnoc2)c(O)c(=O)n1C)C(c1cn[nH]c1)c1ccccc1C#N (single isomer, unassigned) [Example 12 D2E2]	> 10	> 10
CCn1cc(C(c2ccccc2C#N)C(C)c2nc(C(=O)Nc3cnoc3)c(O)c(=O)n2C)cn1 (single isomer, unassigned) [Example 13 D2E2]	> 10	> 10
CC(c1nc(C(=O)Nc2cnoc2)c(O)c(=O)n1C)C(c1cnn(C)c1)c1cc(F)ccc1C#N (single isomer, unassigned) [Example 14 D1E1]	> 10	> 10
CC(c1nc(C(=O)Nc2cnoc2)c(O)c(=O)n1C)C(c1cnn(C)c1)c1cc(F)ccc1C#N (single isomer, unassigned) [Example 14 D2E2]	> 10	> 10
CC(c1nc(C(=O)Nc2cnoc2)c(O)c(=O)n1C)C(c1cnn(C)c1)c1ccc(F)cc1C#N (single isomer, unassigned) [Example 15 D1E2]	> 10	> 10
CC(c1nc(C(=O)Nc2cnoc2)c(O)c(=O)n1C)C(c1cnn(C)c1)c1ccc(F)cc1C#N (single isomer, unassigned) [Example 15 D2E2]	> 10	> 10
CCn1cc(C(c2ccc(F)cc2C#N)C(C)c2nc(C(=O)Nc3cnoc3)c(O)c(=O)n2C)cn1 (single isomer, unassigned) [Example 16 D1E2]	> 10	> 10
CCn1cc(C(c2ccc(F)cc2C#N)C(C)c2nc(C(=O)Nc3cnoc3)c(O)c(=O)n2C)cn1 (single isomer, unassigned) [Example 16 D2E1]	> 10	> 10
CCn1cc(C(c2ccc(F)cc2C#N)C(C)c2nc(C(=O)Nc3cnoc3)c(O)c(=O)n2C)cn1 (single isomer, unassigned) [Example 16 D2E2]	> 10	> 10

SMILES	IC50 [1] [nM]	IC50 [2] [nM]
CCn1cc(C(c2cc(F)ccc2C#N)C(C)c2nc(C(=O)Nc3cnoc3)c(O)c(=O)n2C)cn1 (single isomer, unassigned) [Example 17 D1E1]	> 10	> 10
CCn1cc(C(c2cc(F)ccc2C#N)C(C)c2nc(C(=O)Nc3cnoc3)c(O)c(=O)n2C)cn1 (single isomer, unassigned) [Example 17 D2E2]	> 10	> 10
COCCn1cc(C(c2cc(F)ccc2C#N)C(C)c2nc(C(=O)Nc3cnoc3)c(O)c(=O)n2C)cn1 (single isomer, unassigned) [Example 18 D1E1]	> 10	> 10
COCCn1cc(C(c2cc(F)ccc2C#N)C(C)c2nc(C(=O)Nc3cnoc3)c(O)c(=O)n2C)cn1 (single isomer, unassigned) [Example 18 D2E1]	> 10	> 10
COCCn1cc(C(c2cc(F)ccc2C#N)C(C)c2nc(C(=O)Nc3cnoc3)c(O)c(=O)n2C)cn1 (single isomer, unassigned) [Example 18 D2E2]	> 10	> 10
CC(c1nc(C(=O)Nc2cnoc2)c(O)c(=O)n1C)C(c1cnn(C)c1)c1c(C#N)cccc1C#N (single isomer, unassigned) [Example 19 D1E1]	> 10	> 10
CC(c1nc(C(=O)Nc2cnoc2)c(O)c(=O)n1C)C(c1cnn(C)c1)c1c(C#N)cccc1C#N (single isomer, unassigned) [Example 19 D2E1]	> 10	> 10
CC(c1nc(C(=O)Nc2cnoc2)c(O)c(=O)n1C)C(c1cnn(C)c1)c1c(C#N)cccc1C#N (single isomer, unassigned) [Example 19 D2E2]	> 10	> 10
CC(c1nc(C(=O)Nc2cnoc2)c(O)c(=O)n1C)C(c1cnn(CCN2CCOCC2)c1)c1ccccc1C#N (single isomer, unassigned) [Example 20 D1E2]	> 10	> 10
CC(c1nc(C(=O)Nc2cnoc2)c(O)c(=O)n1C)C(c1cnn(CCN2CCOCC2)c1)c1ccccc1C#N (single isomer, unassigned) [Example 20 D2E2]	> 10	> 10
CC(c1nc(C(=O)Nc2cnoc2)c(O)c(=O)n1C)C(c1cnn(CCN2CCN(C(=O)OC(C)(C)C)CC2)c1)c1ccccc1C#N (single isomer, unassigned) [Example 21 D1E2]	> 10	> 10
CC(c1nc(C(=O)Nc2cnoc2)c(O)c(=O)n1C)C(c1cnn(CCN2CCN(C(=O)OC(C)(C)C)CC2)c1)c1ccccc1C#N (single isomer, unassigned) [Example 21 D2E2]	> 10	> 10
CC(c1nc(C(=O)Nc2cnoc2)c(O)c(=O)n1C)C(c1cnn(CC(F)(F)F)c1)c1ccccc1C#N (single isomer, unassigned) [Example 22 D1E2]	> 10	> 10
CC(c1nc(C(=O)Nc2cnoc2)c(O)c(=O)n1C)C(c1cnn(CC(F)(F)F)c1)c1ccccc1C#N (single isomer, unassigned) [Example 22 D2E2]	> 10	> 10
CC(c1nc(C(=O)Nc2cnoc2)c(O)c(=O)n1C)C(c1cnn(CC2CC2)c1)c1ccccc1C#N (single isomer, unassigned) [Example 23 D1E1]	> 10	> 10
CC(c1nc(C(=O)Nc2cnoc2)c(O)c(=O)n1C)C(c1cnn(CC2CC2)c1)c1ccccc1C#N (single isomer, unassigned) [Example 23 D2E1]	> 10	> 10
CC(c1nc(C(=O)Nc2cnoc2)c(O)c(=O)n1C)C(c1cnn(CC2CC2)c1)c1ccccc1C#N (single isomer, unassigned) [Example 23 D2E2]	> 10	> 10
